{"source": "paper PMC8449129", "about": "“Single tracer-based protocol for broad-spectrum kinase profiling in live cells with NanoBRET” (STAR Protocols, 2021)", "experiment_in_all_cases": "cell-based", "parameters_in_all_cases": "NanoBRET live-cell target engagement; % occupancy from displacement of tracer K10 on NanoLuc-kinase fusions, mean n=3", "details_in_all_cases": "HEK293, read-out: % inhibition", "key": {"[1]": {"biological_target": "AAK1 (Homo sapiens, UniProt Q2M2I8)", "sequence (Q2M2I8 whole entry, the tested form may be a part)": "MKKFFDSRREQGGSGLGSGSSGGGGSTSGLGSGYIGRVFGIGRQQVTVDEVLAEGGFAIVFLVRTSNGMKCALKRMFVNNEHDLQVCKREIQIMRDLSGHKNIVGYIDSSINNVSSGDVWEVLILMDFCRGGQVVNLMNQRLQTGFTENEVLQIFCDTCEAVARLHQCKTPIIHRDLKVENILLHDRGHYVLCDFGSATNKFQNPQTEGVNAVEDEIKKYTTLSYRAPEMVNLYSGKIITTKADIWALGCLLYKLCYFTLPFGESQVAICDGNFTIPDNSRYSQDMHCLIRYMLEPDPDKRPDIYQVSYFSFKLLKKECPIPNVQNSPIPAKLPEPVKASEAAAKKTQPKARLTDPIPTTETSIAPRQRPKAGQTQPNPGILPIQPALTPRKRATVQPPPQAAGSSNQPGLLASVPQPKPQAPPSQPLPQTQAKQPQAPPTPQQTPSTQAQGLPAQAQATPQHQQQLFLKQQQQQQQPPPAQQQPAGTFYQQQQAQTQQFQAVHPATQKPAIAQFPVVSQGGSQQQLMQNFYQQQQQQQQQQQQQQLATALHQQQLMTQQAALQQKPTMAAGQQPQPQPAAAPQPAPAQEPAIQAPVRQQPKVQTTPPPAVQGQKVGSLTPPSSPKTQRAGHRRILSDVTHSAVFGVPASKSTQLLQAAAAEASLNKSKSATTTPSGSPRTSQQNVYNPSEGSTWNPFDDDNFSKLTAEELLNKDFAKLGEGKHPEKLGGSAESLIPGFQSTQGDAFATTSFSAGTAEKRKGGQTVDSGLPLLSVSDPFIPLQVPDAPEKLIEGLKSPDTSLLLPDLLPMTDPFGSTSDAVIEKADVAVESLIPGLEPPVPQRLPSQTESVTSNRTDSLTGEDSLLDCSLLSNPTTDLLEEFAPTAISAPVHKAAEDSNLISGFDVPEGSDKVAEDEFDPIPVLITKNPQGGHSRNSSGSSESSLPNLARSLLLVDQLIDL", "method_in_brief": "(§1)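 Live-cell NanoBRET target engagement: cells expressing kinase–NanoLuc fusion with tracer treated with compound 2 h at 37 °C, 5% CO2. BRET read from donor (450 nm) and acceptor (610/630 nm) emission with 20 μM extracellular NanoLuc inhibitor; % occupancy calculated relative to tracer+DMSO and zero-BRET controls.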"}, "[2]": {"biological_target": "LCK (Homo sapiens, UniProt P06239)", "sequence (P06239 whole entry)": "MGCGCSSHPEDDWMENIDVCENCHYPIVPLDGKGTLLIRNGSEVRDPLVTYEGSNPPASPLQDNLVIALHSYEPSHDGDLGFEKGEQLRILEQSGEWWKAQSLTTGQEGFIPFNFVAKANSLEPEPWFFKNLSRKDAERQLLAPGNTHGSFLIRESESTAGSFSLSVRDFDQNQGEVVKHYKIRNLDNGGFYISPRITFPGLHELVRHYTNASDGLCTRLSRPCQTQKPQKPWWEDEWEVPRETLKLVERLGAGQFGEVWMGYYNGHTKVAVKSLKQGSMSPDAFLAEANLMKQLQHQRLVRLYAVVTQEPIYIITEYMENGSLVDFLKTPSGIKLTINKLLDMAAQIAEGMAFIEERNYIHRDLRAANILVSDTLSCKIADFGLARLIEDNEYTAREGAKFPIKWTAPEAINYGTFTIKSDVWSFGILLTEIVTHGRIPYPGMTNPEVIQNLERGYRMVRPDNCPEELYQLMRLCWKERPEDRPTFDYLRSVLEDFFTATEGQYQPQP", "method_in_brief": "as §1"}, "[3]": {"biological_target": "FGFR2 (Homo sapiens, UniProt P21802)", "method_in_brief": "as §1"}, "[4]": {"biological_target": "HIPK3 (Homo sapiens, UniProt Q9H422)", "method_in_brief": "as §1"}, "[5]": {"biological_target": "CDK14 (Homo sapiens, UniProt O94921)", "method_in_brief": "as §1"}, "[6]": {"biological_target": "HIPK4 (Homo sapiens, UniProt Q8NE63)", "sequence (Q8NE63 whole entry)": "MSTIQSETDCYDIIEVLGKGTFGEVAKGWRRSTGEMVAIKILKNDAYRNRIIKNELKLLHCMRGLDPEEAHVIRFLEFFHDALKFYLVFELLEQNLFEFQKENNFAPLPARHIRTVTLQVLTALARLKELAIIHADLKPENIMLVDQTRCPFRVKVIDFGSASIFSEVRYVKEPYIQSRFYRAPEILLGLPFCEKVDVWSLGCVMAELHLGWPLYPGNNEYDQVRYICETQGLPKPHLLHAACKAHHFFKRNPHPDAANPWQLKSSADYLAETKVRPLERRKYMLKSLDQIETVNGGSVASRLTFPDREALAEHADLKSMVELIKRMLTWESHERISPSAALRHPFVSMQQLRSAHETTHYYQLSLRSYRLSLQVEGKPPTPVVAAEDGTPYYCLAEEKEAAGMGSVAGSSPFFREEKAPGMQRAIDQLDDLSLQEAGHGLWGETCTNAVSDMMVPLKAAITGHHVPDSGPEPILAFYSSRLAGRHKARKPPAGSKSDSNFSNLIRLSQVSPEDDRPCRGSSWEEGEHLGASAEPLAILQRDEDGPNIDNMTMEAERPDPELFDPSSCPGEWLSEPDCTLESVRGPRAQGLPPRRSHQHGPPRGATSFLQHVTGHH", "method_in_brief": "as §1"}, "[7]": {"biological_target": "GAK (Homo sapiens, UniProt O14976)", "method_in_brief": "as §1"}, "[8]": {"biological_target": "MELK (Homo sapiens, UniProt Q14680)", "method_in_brief": "as §1"}, "[9]": {"biological_target": "MKNK2 (Homo sapiens, UniProt Q9HBH9)", "sequence (Q9HBH9 whole entry)": "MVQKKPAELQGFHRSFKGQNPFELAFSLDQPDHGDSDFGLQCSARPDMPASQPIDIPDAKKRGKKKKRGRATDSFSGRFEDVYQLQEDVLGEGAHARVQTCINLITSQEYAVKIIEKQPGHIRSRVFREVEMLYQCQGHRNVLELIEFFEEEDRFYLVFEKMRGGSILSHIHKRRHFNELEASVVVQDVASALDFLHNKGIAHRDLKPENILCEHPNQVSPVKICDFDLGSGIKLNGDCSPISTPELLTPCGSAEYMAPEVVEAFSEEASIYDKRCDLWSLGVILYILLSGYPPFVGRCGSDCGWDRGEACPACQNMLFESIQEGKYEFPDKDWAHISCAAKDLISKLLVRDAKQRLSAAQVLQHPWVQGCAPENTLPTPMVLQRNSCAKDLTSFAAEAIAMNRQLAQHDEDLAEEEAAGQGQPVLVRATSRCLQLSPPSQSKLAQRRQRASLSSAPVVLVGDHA", "method_in_brief": "as §1"}, "[10]": {"biological_target": "TBK1 (Homo sapiens, UniProt Q9UHD2)", "method_in_brief": "as §1"}, "[11]": {"biological_target": "CDKL3 (Homo sapiens, UniProt Q8IVW4)", "method_in_brief": "as §1"}, "[12]": {"biological_target": "CDK10 (Homo sapiens, UniProt Q15131)", "method_in_brief": "as §1"}, "[13]": {"biological_target": "NEK5 (Homo sapiens, UniProt Q6P3R8)", "method_in_brief": "as §1"}, "[14]": {"biological_target": "PRKACB (Homo sapiens, UniProt P22694)", "method_in_brief": "as §1"}, "[15]": {"biological_target": "HIPK2 (Homo sapiens, UniProt Q9H2X6)", "method_in_brief": "as §1"}, "[16]": {"biological_target": "NEK4 (Homo sapiens, UniProt P51957)", "sequence (P51957 whole entry)": "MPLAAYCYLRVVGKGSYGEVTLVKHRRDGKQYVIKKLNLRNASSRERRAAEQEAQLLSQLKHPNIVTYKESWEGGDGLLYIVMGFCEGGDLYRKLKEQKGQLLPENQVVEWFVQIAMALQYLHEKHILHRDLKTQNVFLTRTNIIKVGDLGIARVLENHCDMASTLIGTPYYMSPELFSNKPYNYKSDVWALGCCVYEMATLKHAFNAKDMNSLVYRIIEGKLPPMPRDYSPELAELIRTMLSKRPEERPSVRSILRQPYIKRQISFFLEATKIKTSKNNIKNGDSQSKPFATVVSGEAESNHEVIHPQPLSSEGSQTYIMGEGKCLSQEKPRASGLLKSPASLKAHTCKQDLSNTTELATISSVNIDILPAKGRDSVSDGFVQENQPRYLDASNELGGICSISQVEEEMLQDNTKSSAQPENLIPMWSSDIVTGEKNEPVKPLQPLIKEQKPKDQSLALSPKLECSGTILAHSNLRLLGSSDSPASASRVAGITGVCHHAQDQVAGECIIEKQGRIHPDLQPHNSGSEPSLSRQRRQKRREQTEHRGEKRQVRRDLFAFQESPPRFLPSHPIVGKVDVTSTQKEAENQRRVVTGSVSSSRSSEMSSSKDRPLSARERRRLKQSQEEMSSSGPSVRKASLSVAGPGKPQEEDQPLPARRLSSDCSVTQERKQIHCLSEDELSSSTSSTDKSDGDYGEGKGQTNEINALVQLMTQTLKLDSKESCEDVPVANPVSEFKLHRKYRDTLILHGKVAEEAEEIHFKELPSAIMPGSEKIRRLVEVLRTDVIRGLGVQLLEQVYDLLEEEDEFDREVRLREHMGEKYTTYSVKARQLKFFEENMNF", "method_in_brief": "as §1"}, "[17]": {"biological_target": "LATS2 (Homo sapiens, UniProt Q9NRM7)", "sequence (Q9NRM7 whole entry)": "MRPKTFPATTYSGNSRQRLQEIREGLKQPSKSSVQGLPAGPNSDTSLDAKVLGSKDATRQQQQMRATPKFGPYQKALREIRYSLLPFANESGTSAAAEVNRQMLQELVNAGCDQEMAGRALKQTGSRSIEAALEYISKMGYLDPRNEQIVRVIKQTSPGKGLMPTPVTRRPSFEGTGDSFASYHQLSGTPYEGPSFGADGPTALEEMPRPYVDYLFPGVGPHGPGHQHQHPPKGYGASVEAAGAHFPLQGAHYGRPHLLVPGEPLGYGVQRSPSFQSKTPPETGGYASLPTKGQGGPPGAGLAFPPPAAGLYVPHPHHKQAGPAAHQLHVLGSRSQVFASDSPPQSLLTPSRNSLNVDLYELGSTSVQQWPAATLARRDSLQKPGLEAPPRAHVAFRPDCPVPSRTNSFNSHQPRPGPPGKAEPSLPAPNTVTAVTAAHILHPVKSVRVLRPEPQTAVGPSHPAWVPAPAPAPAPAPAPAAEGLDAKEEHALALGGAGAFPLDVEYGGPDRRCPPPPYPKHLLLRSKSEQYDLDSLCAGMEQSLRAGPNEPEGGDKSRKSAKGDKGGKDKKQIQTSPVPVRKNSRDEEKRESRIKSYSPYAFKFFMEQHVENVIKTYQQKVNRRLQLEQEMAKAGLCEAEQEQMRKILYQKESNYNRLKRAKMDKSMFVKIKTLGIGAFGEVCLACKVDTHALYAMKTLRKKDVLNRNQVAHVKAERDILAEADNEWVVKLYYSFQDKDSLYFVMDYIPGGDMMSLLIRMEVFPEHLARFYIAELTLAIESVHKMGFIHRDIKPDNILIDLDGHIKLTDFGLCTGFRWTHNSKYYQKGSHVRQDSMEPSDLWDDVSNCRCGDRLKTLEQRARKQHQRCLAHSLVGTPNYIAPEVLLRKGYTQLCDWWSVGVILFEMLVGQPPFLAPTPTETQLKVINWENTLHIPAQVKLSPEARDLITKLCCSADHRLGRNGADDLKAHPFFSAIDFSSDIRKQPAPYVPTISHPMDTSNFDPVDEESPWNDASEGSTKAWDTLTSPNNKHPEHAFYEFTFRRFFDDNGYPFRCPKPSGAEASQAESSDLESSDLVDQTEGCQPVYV", "method_in_brief": "as §1"}, "[18]": {"biological_target": "CLK4 (Homo sapiens, UniProt Q9HAZ1)", "sequence (Q9HAZ1 whole entry)": "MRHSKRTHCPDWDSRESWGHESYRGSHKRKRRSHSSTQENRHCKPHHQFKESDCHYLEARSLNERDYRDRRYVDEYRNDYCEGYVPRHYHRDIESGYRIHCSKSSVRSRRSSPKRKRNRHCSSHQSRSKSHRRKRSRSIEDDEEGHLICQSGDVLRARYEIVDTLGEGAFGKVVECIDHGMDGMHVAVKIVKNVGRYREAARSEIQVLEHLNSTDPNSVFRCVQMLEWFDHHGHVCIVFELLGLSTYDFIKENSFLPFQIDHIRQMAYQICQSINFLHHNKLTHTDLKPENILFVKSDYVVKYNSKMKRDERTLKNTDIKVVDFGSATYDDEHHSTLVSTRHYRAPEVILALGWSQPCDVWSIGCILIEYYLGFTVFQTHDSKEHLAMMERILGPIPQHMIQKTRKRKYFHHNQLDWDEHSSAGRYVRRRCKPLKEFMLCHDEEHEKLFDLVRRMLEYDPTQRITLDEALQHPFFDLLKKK", "method_in_brief": "as §1"}}, "data": [{"smiles": "C[C@@H](Oc1cc(-c2cnn(C3CCNCC3)c2)cnc1N)c1c(Cl)ccc(F)c1Cl", "note": "[crizotinib]", "values": [{"measurement": "inhibition at 1 µM", "setting": "[1]", "result": -14, "unit": "%"}, {"measurement": "inhibition at 1 µM", "setting": "[2]", "result": 36, "unit": "%"}, {"measurement": "inhibition at 1 µM", "setting": "[3]", "result": 10, "unit": "%"}, {"measurement": "inhibition at 1 µM", "setting": "[4]", "result": -4, "unit": "%"}, {"measurement": "inhibition at 1 µM", "setting": "[5]", "result": 0, "unit": "%"}, {"measurement": "inhibition at 1 µM", "setting": "[6]", "result": -9, "unit": "%"}, {"measurement": "inhibition at 1 µM", "setting": "[7]", "result": -14, "unit": "%"}, {"measurement": "inhibition at 1 µM", "setting": "[8]", "result": -2, "unit": "%"}, {"measurement": "inhibition at 1 µM", "setting": "[9]", "result": 1, "unit": "%"}, {"measurement": "inhibition at 1 µM", "setting": "[10]", "result": -7, "unit": "%"}, {"measurement": "inhibition at 1 µM", "setting": "[11]", "result": 8, "unit": "%"}, {"measurement": "inhibition at 1 µM", "setting": "[12]", "result": 8, "unit": "%"}, {"measurement": "inhibition at 1 µM", "setting": "[13]", "result": -6, "unit": "%"}, {"measurement": "inhibition at 1 µM", "setting": "[14]", "result": 5, "unit": "%"}, {"measurement": "inhibition at 1 µM", "setting": "[15]", "result": 5, "unit": "%"}, {"measurement": "inhibition at 1 µM", "setting": "[16]", "result": -12, "unit": "%"}, {"measurement": "inhibition at 1 µM", "setting": "[17]", "result": -10, "unit": "%"}, {"measurement": "inhibition at 1 µM", "setting": "[18]", "result": -19, "unit": "%"}]}]}
